Test: Metabolic excretion study (urine and feces collection in metabolic cages) of 177Lu-labelled human IgG conjugates
Type: in vivo, mice (normal CD-1 or athymic CD-1 nude)
Details: mice, intravenous, 7 day period; tested as [177Lu]-HuMIgG conjugates
Method: Groups of 4 or 5 mice (normal CD-1 or athymic CD-1 nude) were injected intravenously with approximately 15 microcuries of radiolabelled test compound. Test compounds with various linkers were synthesized and radiolabelled with lutetium-177. For pharmacokinetic studies, animals were sacrificed at specific time points, and blood and tumor (when applicable) were analyzed for total radioactivity. For metabolism studies, animals were placed in metabolic cages (4-5 per cage) for urine and feces collection every 24 hours for up to 7 days. The radioactive content of urine and feces samples was quantified and converted to total urine or feces output based on weight. Excretion profiles for urine, feces, or total excretion (urine+feces) were generated by plotting cumulative % injected dose (%ID) over time.
The human IgG preparation used consisted of a purified mixture of all IgG isotypes (IgG1-4).

Row | SMILES | total excretion of radioactivity compared to Compound A-HuMIgG
1 | O=C(O)CN1CCN(CC(=O)O)CCN(C(CCC(=O)NCCOCCOCCOCCC(=O)Oc2c(F)c(F)cc(F)c2F)C(=O)O)CCN(CC(=O)O)CC1 (centres unmarked) [Compound C, 4-{[2-(2-{2-[3-oxo-3-(2,3,5,6-tetrafluorophenoxy)propoxy]ethoxy}ethoxy)ethyl]carbamoyl}-2-[4,7,10-tris(carboxymethyl)-1,4,7,10-tetraazacyclododecan-1-yl]butanoic acid] | increased the amount total excretion of radioactivity
2 | O=C(O)CN1CCN(CC(=O)O)CCN(C(CCC(=O)NCCCCCCCCCCC(=O)Oc2c(F)c(F)cc(F)c2F)C(=O)O)CCN(CC(=O)O)CC1 (centres unmarked) [Compound B, 4-{[11-oxo-11-(2,3,5,6-tetrafluorophenoxy)undecyl]carbamoyl}-2-[4,7,10-tris(carboxymethyl)-1,4,7,10-tetraazacyclododecan-1-yl]butanoic acid] | increased the amount total excretion of radioactivity
